Data published in patent publication US12043601B2, “N-substituted-1H-1,2,4-triazole-3-carboxamides, analogues thereof, and methods of treatment using same” (THE REGENTS OF THE UNIVERSITY OF COLORADO, priority 2018, dated 2024).
≈ marks a conversion by molar mass, not a printed value.

Columns and labels:
[1] = test system: Salmonella strain 14028s; test: Minimum inhibitory concentration in EG minimal media; format: cell-based, Salmonella Typhimurium; settings: 18 h; for Growth in EG at concentration tested 1 μg/ml / Growth in EG at concentration tested 2 μg/ml / Growth in EG at concentration tested 4 μg/ml / Growth in EG at concentration tested 8 μg/ml / Growth in EG at concentration tested 16 μg/ml / Growth in EG at concentration tested 32 μg/ml: EG minimal media, 37° C.; for MIC: Salmonella, 14028S
Method: DksA controls transcription of metabolic and virulence genes, allowing bacteria to both grow in minimum media and cause disease. Inhibition of bacterial growth in EG minimum media was used as an easy and reliable proxy of the DksA-dependent regulation of metabolism.
In a non-limiting example, wild-type Salmonella strain 14028s was grown overnight (18.5 h), and then diluted in EG minimal media to a density of about 10^5 CFU/mL. […] Each test tube was incubated at 37° C. with shaking for 18 h and bacterial growth was evaluated. The MIC value was determined as the lowest concentration of compound that inhibited growth.

[2] = molecular target: T1, DksA (Salmonella typhimurium, UniProt P0A1G5); test: DksA-dependent livJ in vitro transcription; format: biochemical; settings: livJ promoter; for IVT: concentration showing activity
T1 sequence (P0A1G5 whole entry): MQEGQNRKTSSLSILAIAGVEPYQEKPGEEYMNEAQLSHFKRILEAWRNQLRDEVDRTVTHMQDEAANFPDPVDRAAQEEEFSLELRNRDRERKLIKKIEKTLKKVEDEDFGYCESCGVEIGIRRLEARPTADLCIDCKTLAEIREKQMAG
Method: (§1) To measure the potency of a compound in inhibition of DksA biological function, rpsMtranscripts in vitro was determined by non-radioactive in vitro transcription reactions with qPCR analysis with divergent compounds. Briefly, 5 nM pTIM-rpsMplasmid was mixed with […] of compounds in 10 μl reaction buffer (40 mM HEPES [pH 7.4], 2 mM MgCl2, 60 mM potassium glutamate, 0.05% NP-40, 200 μM ATP, 200 μM GTP, 200 μM CTP, 200 μM UTP, and 5 nM E. coli RNA polymerase holoenzyme (NEB, Ipswich, MA) with 5 μM DksA. The in vitro transcription was carried out at 37° C. for 10 min, and then terminated at 70° C. for 10 min. To remove template DNA after treated with DNaseI, DNA-free DNA Removal kit (ThermoFisher) was used according to manufacturer's direction. The resulting materials were used as templates to generate cDNA with 100 U MMLV reverse transcriptase (Promega), 0.45 μM gene specific primer, and 20 U RNase inhibitor (Promega). The amount of cDNA synthesized for 1 h at 42° C. was quantified by real-time PCR (qRT-PCR). The copy number of specific transcripts was calculated to the standard curve generated with known gene copy concentrations. The IC50 is the concentration at which the curve passes through the 50% inhibition level. Standard deviation was calculated from 3 independent experiments.
(§2) The compounds were initially tested at 0.1 μM and 1 μM using as a target the promoter of the livJ gene that encodes a transporter of branch-chain amino acids (Table 4).

[3] = molecular target: T1, DksA; test: DksA-mediated repression of rpsM in vitro transcription (IVT, qRT-PCR); format: biochemical
Method: as §1
The compounds obtained in this screen were further analyzed for binding to the acidic pocket at the tip of DksA coiled-coil domain using the computer search program Dock. The analysis identified over 400 compounds. A panel of 40 compounds was selected from the top hits based on free energy binding scores. These compounds were investigated using the computer modeling program O. Two additional criteria were applied in order to narrow down the list of candidates: First, the compounds needed to fit deep into the pocket without any clashes; and second, the compounds bound to DksA should have minimal exposed moieties. The compounds selected were further refined according to energy minimization as calculated by the CNS program. 23 compounds were obtained from MolPort and they were tested for their ability to interfere with DksA in a high throughput screen that combined in vitro transcription with highly specific and quantitative qRT-PCR. Five of these compounds, including N-(3,4-dimethoxyphenyl)-1H-1,2,4-triazole-3-carboxamide (1), prevented DksA-mediated repression of rpsM in vitro transcription to some degree. […] Without intending to be limited to any particular theory, the effect that 1 has on DksA-dependent rpsM or hisG gene transcription is potentially due to differences in promoter activity.
as §2

[4] = Compound solubility; format: physicochemical; settings: for Compound Solubility, 1 μM: solvent at 1 μM; for Compound Solubility, 10 μM: solvent at 10 μM; for Compound Solubility, 100 μM: solvent at 100 μM; for Compound Solubility, 1 mM: solvent at 1 mM; for Compound Solubility, 10 mM: solvent at 10 mM; for Compound Solubility, 16 mg/ml: solvent at 16 mg/ml

Row | SMILES | Growth in EG at concentration tested 1 μg/ml [1] | Growth in EG at concentration tested 2 μg/ml [1] | Growth in EG at concentration tested 4 μg/ml [1] | Growth in EG at concentration tested 8 μg/ml [1] | MIC [1] | In vitro transcription assay result, 0.1 μM [2] | In vitro transcription assay result, 1 μM [2] | IVT [2] | IC50 [3] | Compound Solubility, 1 μM [4] | Compound Solubility, 10 μM [4] | Compound Solubility, 100 μM [4] | Compound Solubility, 1 mM [4] | Compound Solubility, 10 mM [4] | Compound Solubility, 16 mg/ml [4] | Growth in EG at concentration tested 16 μg/ml [1] | Growth in EG at concentration tested 32 μg/ml [1]
1 | O=C(NCCCc1ccccc1)c1nc[nH]n1 [Compound 15, N-(3-phenylpropyl)-1H-1,2,4-triazole-3-carboxamide] | + | + | + | + | 16 µg/mL (≈ 69.5 µM) | no induction | no induction | 0.1 µM | 51 nM | water | water | water | water | water | DMSO | – | –
2 | O=C(NCCc1ccccc1)c1nc[nH]n1 [Compound 20, N-phenethyl-1H-1,2,4-triazole-3-carboxamide] | + | + | + | – | 8 µg/mL (≈ 37 µM) | no induction | no induction | 0.1 µM | 90 nM | water | water | water | water | water | DMSO | – | –
3 | O=C(NCCCCc1ccccc1)c1nc[nH]n1 [Compound 16, N-(4-phenylbutyl)-1H-1,2,4-triazole-3-carboxamide] | + | + | + | – | 16 µg/mL (≈ 65.5 µM) | no induction | good repression | 0.1 µM | 91 nM | water | water | water | water | DMSO | DMSO | – | –
4 | O=C(NCCc1c[nH]c2ccccc12)c1nc[nH]n1 [Compound 19, N-(2-(1H-indol-3-yl)ethyl)-1H-1,2,4-triazole-3-carboxamide] | + | + | + | + | 16 µg/mL (≈ 62.7 µM) | no induction | no induction | 0.1 µM | 75 nM | water | water | water | water | water | DMSO | – | –
5 | O=C(Nc1cc(Cl)cc(Cl)c1)c1nc[nH]n1 [Compound 14, N-(3,5-dichlorophenyl)-1H-1,2,4-triazole-3-carboxamide] | + | + | + | – | 8 µg/mL (≈ 31.1 µM) | no induction | no induction | 0.1 µM | 71 nM | water | water | water | DMSO | DMSO | DMSO | – | –
6 | COc1ccc(CNC(=O)c2nc[nH]n2)cc1OC [Compound 2, N-(3,4-dimethoxybenzyl)-1H-1,2,4-triazole-3-carboxamide] | + | + | + | + | – | no change | no change | – | – | water | water | water | water | water | DMSO | + | +
7 | O=C(NCc1ccc(OC(F)(F)F)cc1)c1nc[nH]n1 [Compound 8, N-(4-(trifluoromethoxy)benzyl)-1H-1,2,4-triazole-3-carboxamide] | + | + | + | + | – | no induction | no induction | 0.1 µM | – | water | water | water | water | DMSO | DMSO | + | +
8 | CCCCNC(=O)c1nc[nH]n1 [Compound 12, N-butyl-1H-1,2,4-triazole-3-carboxamide] | + | + | + | – | 8 µg/mL (≈ 47.6 µM) | no induction | no induction | 0.1 µM | 73 nM | water | water | water | water | water | DMSO | – | –
9 | O=C(NCc1ccc2c(c1)OCO2)c1nc[nH]n1 [Compound 6, N-(benzo[d][1,3]dioxol-5-ylmethyl)-1H-1,2,4-triazole-3-carboxamide] | + | + | – | – | 8 µg/mL (≈ 32.5 µM) | no change | no change | – | – | water | water | water | water | water | DMSO | – | –
